Results published in article PMC3242765, “Inhibitors of Alphavirus Entry and Replication Identified with a Stable Chikungunya Replicon Cell Line and Virus-Based Assays” (PLoS ONE, 2011).
Counter-ions that a name gives are not always drawn. Like-named read-outs stand apart in the source and are kept apart here.

How the values were obtained:
[1] = test system: SFV-Rluc; details: for IC50: read-out: SFV IC50
[2] = test system: BHK cells; assay: Cell viability ATP assay, BHK cells; type: cell-based, hamster; details: read-out: Cell viability IC50
[3] = test system: SFV-Rluc; assay: microbe, parasite or virus in culture; details: Semliki Forest virus, BHK, 14 h, read-out: SFV IC50
[4] = test system: SFV; assay: Viral yield analysis using a plaque assay; type: cell-based, Semliki Forest virus (SFV); details: BHK cells, MOI 0.01, 50 µM compound, 16 h; untreated control 1.4×10^9 PFU/ml
[5] = test system: SFV; assay: CPE reduction assay, SFV (WST-1); type: cell-based, Semliki Forest virus (SFV); details: Semliki Forest virus, BHK, 22 h, read-out: SFV IC50 (CPE reduction)
[6] = test system: SINV; assay: CPE reduction assay, SINV (WST-1); type: cell-based, Sindbis virus (SINV); details: Sindbis virus, BHK, 24 h, read-out: SINV IC50 (CPE reduction)
[7] = test system: CHIKV replicon; assay: microbe, parasite or virus in culture; type: cell-based, Chikungunya virus (CHIKV)
[8] = Mesocricetus auratus, BHK, 48 h
[9] = ATP assay, 48 h exposure of BHK cells

Structure (SMILES)	SFV replication % left (surviving fraction, remaining percentage of SFV replication) [1]	CHIKV replicon % left [7]	also measured
C[C@@H]1O[C@@H](Oc2c(-c3ccc(O)c(O)c3)oc3cc(O)cc(O)c3c2=O)[C@H](O)[C@H](O)[C@H]1O [Quercitrin]	–	–	SI (selectivity index) [1]: >8.4; IC50 [2, 8]: > 200 µM; IC50 [3]: 23.7 µM
CC1=CC(=O)c2ccccc2C1=O [Menadione]	–	–	SI (selectivity index) [1]: 2.8; IC50 [2, 8]: 21.9 µM; IC50 [3]: 7.8 µM
CN(C)CCC=C1c2ccccc2COc2ccccc21 [Doxepin]	–	–	SFV yield [4]: 3.6×10^8 PFU/ml
COc1c2ccoc2cc2oc(=O)ccc12 [Bergapten]	–	–	IC50 [5]: 9.2 µM; SI (selectivity index) [1]: >24.6; SFV yield [4]: 1.2×10^8 PFU/ml; IC50 [2, 8]: > 200 µM; IC50 [6]: 16.2 µM; IC50 [3]: 8.1 µM
CCN(CC)c1ccc2cc(C(=O)c3cccs3)c(=O)oc2c1 [7-Diethylamino-3-thenoylcoumarin]	15.6%	36.9%	IC50 [1]: 5.1 µM; IC50 [2, 9]: 39.1 µM
O=c1cc(-c2ccccc2)oc2c1ccc1ccccc12 [Alphanaphtoflavone]	–	–	IC50 [1]: 24.1 µM; IC50 [2, 9]: > 200 µM
CCCOC(=O)c1cc(O)c(O)c(O)c1 [Propyl gallate]	–	–	SI (selectivity index) [1]: 5.8; IC50 [2, 8]: 103 µM; IC50 [3]: 17.9 µM
CC[C@H]1CN2CCc3cc(OC)c(OC)cc3[C@@H]2C[C@@H]1C[C@H]1NCCc2cc(OC)c(OC)cc21 [Emetine dihydrochloride]	63.1%	80.9%	–
COC(=O)c1ccc(O)cc1 [Methyl p-hydroxybenzoate]	69.3%	100.4%	–
CC(C)NCC(O)c1ccc(O)c(O)c1.Cl (stereo not shown)	112.5%	99.3%	–
O=C(O)c1ccccc1C(=O)O [Phthalic acid]	143.7%	96.6%	–
O=C(O)c1ccccc1O [Salicylic acid]	69.1%	78.2%	–
Cl.c1ccc(CC2=NCCN2)cc1 [Tolazoline, hydrochloride]	76.0%	102.1%	–
Cc1cc(C(C)(C)C)c(O)c(C(C)(C)C)c1 [Butylated hydroxytoluene]	72.6%	47.8%	–
CC(=O)OCC(=O)[C@@]1(O)CC[C@H]2[C@@H]3CCC4=CC(=O)CC[C@]4(C)[C@H]3[C@@H](O)C[C@@]21C [Hydrocortisone acetate]	116.8%	72.1%	–
CCCCNC(=O)c1ccc(Cl)cc1O [Buclosamide]	49.6%	100.6%	–
CCCCC1(CC)C(=O)NC(=O)NC1=O [Butethal]	45.2%	78.2%	–
CCS(=O)(=O)C(C)(C)S(=O)(=O)CC [Sulfonmethane]	86.6%	102.7%	–
COc1cc(C(=O)O)ccc1O [Vanillic acid]	53.4%	44.3%	–
CCCCNc1ccc(C(=O)OCCN(C)C)cc1 [Cainopan, p-Butylaminobenzoyldimethylaminoethanol]	63.8%	82.2%	–
CC(N)C(O)c1ccc(O)c(O)c1 (stereo not shown) [Nordefrin hydrochloride]	118.0%	104.2%	–
O=C(O)Cc1cccc(O)c1 [3-hydroxyphenylacetic acid]	110.8%	54.1%	–

Structure (SMILES)	SFV replication % left (surviving fraction, remaining percentage of SFV replication) [1]	CHIKV replicon % left [7]	also measured
CC(=O)c1ccc(O)cc1 [4-Hydroxyacetophenone]	29.4%	94.5%	SI (selectivity index) [1]: 7.8; IC50 [2, 8]: 164 µM; IC50 [3]: 21.1 µM
O=c1ccc2cc(O)c(O)cc2o1 [Esculetin]	103.6%	89.2%	–
CN1C(=O)CN=C(c2ccc(Cl)cc2)c2cc(Cl)ccc21 [4'-Chlorodiazepam]	64.0%	105.5%	–
NCC(O)c1ccc(O)cc1 (stereo not shown) [Octopamine hydrochloride]	102.1%	88.4%	–
CC(C)(C)NC[C@H](O)COc1nsnc1N1CCOCC1 [Timolol maleate]	129.1%	100.6%	–
CC(C)OC(=O)c1cc(O)c(O)c(O)c1 [Isopropyl gallate]	124.0%	79.3%	–
C[C@]12C=CC(=O)C=C1CC[C@@H]1[C@@H]2[C@@H](O)C[C@@]2(C)[C@H]1CC[C@]2(O)C(=O)CO [Prednisolone]	104.2%	84.3%	–
CNCCC=C1c2ccccc2CCc2ccccc21 [Nortriptyline hydrochloride]	5.3%	29.1%	–
NCCCS(=O)(=O)O [Homotaurine]	118.7%	89.2%	–
C=CCC1(CC=C)C(=O)NC(=O)NC1=O [Allobarbital]	45.6%	121.1%	–
COCCc1ccc(OCC(O)CNC(C)C)cc1 (stereo not shown) [Metoprolol tartrate]	65.7%	78.2%	–
Oc1cc(O)c2c(c1)O[C@H](c1ccc(O)c(O)c1)[C@H](O)[C@H]2c1c(O)cc(O)c2c1O[C@H](c1ccc(O)c(O)c1)[C@H](O)C2 [Procyanidin B2]	93.7%	101.9%	–
COc1ccc(Cc2nccc3cc(OC)c(OC)cc23)cc1OC [Papaverine]	99.3%	78.2%	–
C#C[C@]1(O)CC[C@H]2[C@@H]3CCC4=CC(=O)CC[C@@H]4[C@H]3CC[C@@]21C [Norethindrone]	107.8%	97.1%	–
CN(C)CC[C@@H](c1ccc(Cl)cc1)c1ccccn1 [Dexchlorpheniramine maleate]	68.1%	51.7%	–
N[C@@H]1C[C@H]1c1ccccc1.N[C@H]1C[C@@H]1c1ccccc1.O=S(=O)(O)O [Tranylcypromine sulfate]	94.8%	94.4%	–
Cn1c(=O)c2c(ncn2CC(O)CO)n(C)c1=O (stereo not shown) [7-(2,3-Dihydroxypropyl)theophylline]	100.1%	54.3%	–
COc1cc(C(=O)O)cc(OC)c1OC [3,4,5-Trimethoxybenzoic acid]	34.0%	28.8%	–
Cc1cc(NS(=O)(=O)c2ccc(N)cc2)no1 [Sulfamethoxazole]	77.5%	100.5%	–
Oc1cc(O)c2c(c1)O[C@H](c1cc(O)c(O)c(O)c1)[C@H](O)C2 [(-)-Epigallocatechin]	101.9%	89.9%	–
C[C@H](CCC(=O)O)[C@H]1CC[C@H]2[C@@H]3CC[C@@H]4C[C@H](O)CC[C@]4(C)[C@H]3C[C@H](O)[C@]12C [Deoxycholic acid]	86.5%	100.8%	–
